What was measured:
Format in all cases: in vivo, human
[1] = Clinical Case 6: constipation for about 10 years; conditions: 4 persons, 1-2 times a week on conventional drugs; oral, 12 mg˜15 mg one time per day for 1 day
Source text: 4 persons, who had suffered from constipation for about 10 years, defecated 1-2 times a week when administrated with conventional drugs.

[2] = Clinical Case 3: cold with fever of 39° C.; conditions: person, oral, 15 mg per day for 1 day
Source text: Therapeutic effect: fever was allayed after 1 day and symptom of cough disappeared after 2 days.

[3] = Clinical Case 1: continued bad cough not susceptive to antibiotics therapy; conditions: person two, oral, 15 mg per day for 5 days
Procedure: person two, who had been suffering from a continued bad cough for 2 months and not susceptive to antibiotics therapy, was administrated orally with medicament of 1-calcium phosphate-uracil for 5 days, 15 mg per day.

[4] = Clinical Case 4: fever of 40.5° C.; conditions: person, oral, 15 mg one time per day for 1 day
Source text: Therapeutic effect: fever was allayed after 1 day and symptom of cough disappeared after 3 days.

[5] = Clinical Case 9: liver cancer in a most serious stage; conditions: person; oral, 15 mg one time per day for 10 months
Procedure: A person, who suffered liver cancer in a most serious stage, was administrated orally with medicament of 1-calcium phosphate-uracil for 10 months, one time per day, 15 mg each time.
Therapeutic effect: liver tumor was disappeared upon the examination of CT.

[6] = Clinical Case 8: sleeping and stamina; conditions: 20 persons aging 12˜70 years; 15 mg per day for one day
Source text: The medicament can ameliorate sleeping and supplement stamina.

[7] = test system: influenza; assay: Clinical Case 5: treatment of persons infected with influenza; conditions: 2 infected persons, oral, 15 mg one time per day for 3 days
Procedure: One day after infection, 2 of 6 infected persons were administrated orally with medicament of 1-calcium phosphate-uracil for 3 day, one time per day, 15 mg each time. Therapeutic effect: fever was allayed after 1 day and symptom of cough faded away after 3 days. Instead of being administrated with medicament of 1-calcium phosphate-uracil, the other 4 infected persons were treated according to conventional therapeutic regimen, recovered until after 15 days.

[8] = test system: influenza; assay: Clinical Case 5: administration in advance during influenza period; conditions: 2 of 8 persons in a dormitory, oral in advance, 15 mg one time per day for 1 day; other 6 persons all infected
[9] = Clinical Case 2: cough, hyperplasia of prostate and constipation; conditions: person one, oral, 15 mg per day for 5 days
Procedure: person one, who had been suffering from cough for about 50 years and hyperplasia of prostate for 7 years and recently relapsed into continued cough for 15 days and constipation, was administrated orally with medicament of 1-calcium phosphate-uracil for 5 days, 15 mg per day.

[10] = Clinical Case 7: frequent premature beat, cardiac distress and constipation; conditions: person, oral
Procedure: A person, who had suffered from frequent premature beat, cardiac distress for 3 years and constipation for 5 years, was administrated orally with medicament of 1-calcium phosphate-uracil for 20 days, 13 mg per day.
The therapeutic effect: the symptoms of palpitation premature beat and cardiac distress disappeared completely after 20 days from administration and constipation symptom disappeared after 1 day from administration.

Substance: 1-calcium phosphate-uracil
- defecation [1]: defecated smoothly, once a day
- fever was allayed after ([2]; fever of 39° C.): 1 days
- symptom of cough disappeared after [2]: 2 days
- symptom of cough ([3]; cough for 2 months): cured completely
- symptom of incontinence of urine [3]: disappeared
- fever was allayed after ([4]; fever of 40.5° C.): 1 days
- symptom of cough disappeared after [4]: 3 days
- liver tumor upon the examination of CT [5]: disappeared
- sleeping on the same day [6]: good sleeping
- stamina in the next day [6]: full of vigor
- fever was allayed after ([7]; one day after infection): 1 days
- symptom of cough faded away after ([7]; conventional regimen recovered after 15 days): 3 days
- infection with influenza [8]: not infected with influenza
- cough symptom ([9]; continued cough for 15 days): alleviated
- frequency of nocturia ([9]; hyperplasia of prostate for 7 years): decreased significantly
- constipation [9]: disappeared
- constipation symptom disappeared after ([10]; constipation for 5 years, 13 mg per day): 1 days
- symptoms of palpitation premature beat and cardiac distress disappeared completely after ([10]; 13 mg per day for 20 days): 20 days

Source: US20050277622A1, “1-Calcium phosphate-uracil and method for preparing thereof” (priority 2004, published 2005)
